Data on 70 compounds can be found in US11840521B2, “Modulators of Mas-related G-protein receptor X4 and related products and methods” (Escient Pharmaceuticals, Inc., priority 2019, dated 2023).

Some results are limits rather than exact numbers.

Chain of MRGPRX4 (Q96LA9 whole entry): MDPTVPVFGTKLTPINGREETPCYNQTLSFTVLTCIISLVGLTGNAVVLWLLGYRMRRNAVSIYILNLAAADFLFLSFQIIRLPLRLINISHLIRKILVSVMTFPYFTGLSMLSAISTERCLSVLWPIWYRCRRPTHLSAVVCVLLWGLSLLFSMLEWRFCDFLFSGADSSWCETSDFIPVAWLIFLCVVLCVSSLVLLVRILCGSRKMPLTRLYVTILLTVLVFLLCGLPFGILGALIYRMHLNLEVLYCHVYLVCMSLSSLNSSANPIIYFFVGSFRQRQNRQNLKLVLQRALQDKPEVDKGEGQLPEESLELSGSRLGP

This test deals with MRGPRX4 (Homo sapiens, UniProt Q96LA9). Description: MRGPR X4 antagonist activity, IP-One Gq HTRF assay in stably transfected HEK cells (versus agonist bilirubin, deoxycholic acid, conjugated bilirubin, urobilin, obeticholic acid or BAR502). Type of test: cell-based. Further details: expressed in transfected cells; host or cells: HEK cells, stably transfected. As to conditions: versus 10 μM Bilirubin agonist; HEK cells expressing human MRGPR X4; read-out: MRGPR4 Antagonist Activity. Summed up:
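Stably transfected HEK cells expressing human MRGPR X4, seeded overnight, given compounds as 10-point 1:3 curves from 10 uM final top, incubated 1 h at 37° C then 30 min at room temperature. IP-1 measured by IP-One Gq HTRF. IC50 derived from the HTRF ratio.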
(In general: In TR-FRET formats the signal depends on donor and acceptor labels being close together.)
For `O=C(O)c1cccc(COc2ncc(C(F)(F)F)cc2Cl)c1` [Compound 35-1, 3-(((3-chloro-5-(trifluoromethyl)pyridin-2-yl)oxy)methyl)benzoic acid], the IC50 was 100 to 500 nM. For `Cc1cc(OCc2cccc(C(=O)O)c2)cc(C)c1Cl` [Compound 1-53], the IC50 fell in the range of 500 to 1000 nM. Consider `Cc1cc(Cl)ccc1OCc1cccc(C(=O)O)c1` [Compound 3-5], for which the IC50 was 100 to 500 nM. For the compound `N#Cc1cc(Cl)c(F)cc1OCc1cccc(C(=O)O)c1` [Compound 1-153], the IC50 was in the range of 100 to 500 nM.

Take `O=C(O)c1cc(F)cc(COc2ccc(OC(F)(F)F)cc2Cl)c1` [Compound 1-121]: the IC50 lay within 100 to 500 nM. With `Cc1cc(C(F)(F)F)ccc1OCc1cccc(C(=O)O)c1` [Compound 1-16, 3-((2-methyl-4-(trifluoromethyl)phenoxy)methyl)benzoic acid], the IC50 was less than 100 nM. The same measure for `O=C(O)CNC(=O)c1cccc(COc2ccc(C(F)(F)F)cc2Cl)c1` [Compound 54-2]: less than 100 nM; for `CC(=O)c1ccc(OCc2cccc(C(=O)O)c2)cc1` [Compound 1-54]: greater than 2500 nM. The same measure for `O=C(O)c1c(F)ccc(COc2ccc(C(F)(F)F)cc2Cl)c1F` [Compound 1-136]: less than 100 nM. For `FC(F)(F)c1ccc(OCc2cccc(-c3nnn[nH]3)n2)c(Cl)c1` [Compound 17-6], the IC50 was less than 100 nM.

Turning to `CC(C)NC(=O)c1cccc(COc2ccc(C(F)(F)F)cc2Cl)c1` [Compound 52-8], the IC50 was 100 to 500 nM. As to `Cc1cc(COc2ccc3ccccc3c2)nc(C(=O)O)c1` [Compound 41-1, 4-methyl-6-((naphthalen-2-yloxy)methyl)picolinic acid], the IC50 is less than 100 nM. As for `FC(F)(F)c1ccc(OCc2cccc(-c3cnc[nH]3)c2)c(Cl)c1` [Compound 47-1, 5-(3-((2-chloro-4-(trifluoromethyl)phenoxy)methyl)phenyl)-1H-imidazole], the IC50 lay in the range of 500 to 1000 nM. The same measure for `O=C(O)c1cc(COc2ccc(C(F)(F)F)cc2Cl)ccn1` [Compound 1-137]: 100 to 500 nM; for `O=C(O)c1cccc(COc2ccc3ccccc3c2)c1F` [Compound 1-58]: less than 100 nM; for `O=C(O)c1cc(Cl)cc(COc2ccc(Cl)cc2Cl)c1` [Compound 2-1, 3-chloro-5-((2,4-dichlorophenoxy)methyl)benzoic acid]: less than 100 nM. The same measure for `O=C(O)c1nc(COc2ccc(C(F)(F)F)cc2Cl)ccc1F` [Compound 4-18]: less than 100 nM. For `O=C(O)c1cccc(COc2ccc3occc3c2)c1` [Compound 1-131], the IC50 was in the range of 100 to 500 nM. The same measure for `O=C(O)c1cccc(COc2ccc3c(c2)C(=O)CCC3)c1` [Compound 1-151]: greater than 2500 nM; for `FC(F)(F)c1ccc(OCc2cccc(-c3cn[nH]n3)c2)c(Cl)c1` [Compound 48-1, 4-(3-((2-chloro-4-(trifluoromethyl)phenoxy)methyl)phenyl)-2H-1,2,3-triazole]: 1000 to 2500 nM; for `O=C(O)c1cc(COc2ccc(C(F)(F)F)cc2Cl)cc(C(F)(F)F)c1` [Compound 4-20]: 100 to 500 nM. For `NCc1cccc(COc2ccc(Cl)cc2Cl)c1` [Compound 7-1, (3-((2,4-dichlorophenoxy)methyl)phenyl)methanamine], the IC50 was in the range of 100 to 500 nM. With `O=C(N[C@@H](Cc1c[nH]c2ccccc12)C(=O)O)c1cccc(COc2ccc(C(F)(F)F)cc2Cl)c1` [Compound 54-5], the IC50 was 100 to 500 nM. On to `O=C(N[C@H]1CC[C@H](O)CC1)c1cccc(COc2ccc(C(F)(F)F)cc2Cl)c1` [Compound 52-15], for which the IC50 lay within 500 to 1000 nM. Turning to `CC(C)(C)c1ccccc1OCc1cccc(C(=O)O)c1` [Compound 1-144], the IC50 was greater than 2500 nM. In the case of `O=C(O)c1cccc(COc2cc3ccccc3cc2Cl)c1` [Compound 1-130], the IC50 fell in the range of 100 to 500 nM. `CCNC(=O)c1cccc(COc2ccc(C(F)(F)F)cc2Cl)c1` [Compound 52-10]: the IC50 lay within 100 to 500 nM.

For the compound `O=C(O)c1cccc(COc2ccc(N3CCCC3)cc2Cl)c1F` [Compound 4-24], the IC50 was in the range of 500 to 1000 nM. `N#CCc1ccccc1OCc1cccc(C(=O)O)c1` [Compound 1-150]: the IC50 was greater than 2500 nM. With `c1cc(COc2ccc3ccccc3c2)cc(-c2nnn[nH]2)c1` [Compound 17-5], the IC50 was less than 100 nM. With `CS(=O)(=O)NC(=O)c1cccc(COc2ccc(C(F)(F)F)cc2Cl)c1` [Compound 52-20], the IC50 was in the range of 100 to 500 nM. Regarding `Cc1cc(COc2ccc(C(F)(F)F)c(Cl)c2)cc(C(=O)O)c1` [Compound 4-17], the IC50 is less than 100 nM. With `NC(=O)c1cccc(COc2ccc(C(F)(F)F)cc2Cl)c1` [Compound 45-1, 3-((2-chloro-4-(trifluoromethyl)phenoxy)methyl)benzamide], the IC50 lay in the range of 100 to 500 nM.

`O=C(O)c1cccc(Oc2ccc([N+](=O)[O-])cc2Cl)c1` [Compound 16-2]: the IC50 was greater than 2500 nM. For the compound `O=C(O)c1cccc(COc2ccc3sccc3c2)c1F` [Compound 4-22], the IC50 fell in the range of 100 to 500 nM. For the compound `O=C(O)c1cccc(COc2ccc(C(F)F)cc2Cl)c1` [Compound 33-3], the IC50 was less than 100 nM. With `O=C(O)c1ccc(NC(=O)c2cccc(COc3ccc(C(F)(F)F)cc3Cl)c2)cc1` [Compound 54-10], the IC50 was in the range of 500 to 1000 nM. Consider `O=C(O)c1cccc(COc2ccc(C(F)(F)F)c(F)c2)c1` [Compound 1-112], for which the IC50 was less than 100 nM. The same measure for `O=C(c1ccc(COc2ccc(C(F)(F)F)cc2Cl)cc1)N1CCC2(COC2)C1` [Compound 52-4]: 1000 to 2500 nM; for `Cc1c(Cl)cccc1OCc1cccc(C(=O)O)c1` [Compound 1-95]: 100 to 500 nM; for `O=C(O)c1cccc(COc2ccc(Cl)cc2F)c1` [Compound 1-23]: 500 to 1000 nM. In the case of `O=C(O)c1cccc(COc2ccc3ccoc3c2)c1` [Compound 1-128], the IC50 was in the range of 500 to 1000 nM.

Consider `N#CCNC(=O)c1ccc(COc2ccc(C(F)(F)F)cc2Cl)cc1` [Compound 52-6], for which the IC50 was in the range of 100 to 500 nM.

On to `O=C(c1cccc(COc2ccc(C(F)(F)F)cc2Cl)c1)N1CCCC(O)C1` (stereo not shown) [Compound 52-21], for which the IC50 is 500 to 1000 nM. As for `NC(=O)c1cccc(COc2cccc(Cl)c2Cl)c1` [Compound 13-1, 3-((2,3-dichlorophenoxy)methyl)benzamide], the IC50 is greater than 2500 nM. As to `N#Cc1ccc(OCc2cccc(C(=O)O)c2)cc1` [Compound 1-34], the IC50 was greater than 2500 nM. Take `O=C(O)c1cccc(COc2ccc3c(c2)CCC3)c1` [Compound 1-42]: the IC50 is 1000 to 2500 nM.

As to `Cc1cc(C(F)(F)F)ccc1OCc1cccc(-c2nnn[nH]2)c1` [Compound 17-11], the IC50 is less than 100 nM. `O=C(O)c1cccc(COc2ccc(OC(F)(F)F)c(Cl)c2)c1` [Compound 1-132]: the IC50 was less than 100 nM. Take `NC(=O)C[C@H](NC(=O)c1cccc(COc2ccc(C(F)(F)F)cc2Cl)c1)C(=O)O` [Compound 55-1, (3-((2-chloro-4-(trifluoromethyl)phenoxy)methyl)benzoyl)-L-asparagine]: the IC50 fell in the range of 100 to 500 nM. On to `O=C(O)c1cccc(CSc2ccc(Cl)cc2Cl)c1` [Compound 15-1, 3-(((2,4-dichlorophenyl)thio)methyl)benzoic acid], for which the IC50 lay within 100 to 500 nM. The same measure for `O=C(O)c1cccc(CNc2ccc(C(F)(F)F)cc2Cl)n1` [Compound 12-3]: less than 100 nM; for `CCc1c(COc2ccc(C(F)(F)F)cc2Cl)cccc1C(=O)O` [Compound 37-1, 3-((2-chloro-4-(trifluoromethyl)phenoxy)methyl)-2-ethylbenzoic acid]: 1000 to 2500 nM.

In the case of `O=C(O)c1cccc(COc2cccc3c2OC(F)(F)O3)c1` [Compound 1-48], the IC50 was greater than 2500 nM.

With `O=C(O)c1cccc(COc2ccc(C(F)(F)F)cc2)c1` [Compound 1-41], the IC50 was 100 to 500 nM.

Turning to `O=C(O)c1cccc(COc2ccc(C(F)(F)F)cc2)c1F` [Compound 4-28], the IC50 was less than 100 nM.

In the case of `Cc1cc(F)ccc1OCc1cccc(C(=O)O)c1` [Compound 1-94], the IC50 lay in the range of 1000 to 2500 nM. As for `Cc1ccc(COc2ccc(Cl)cc2Cl)cc1C(=O)O` [Compound 8-1, 5-((2,4-dichlorophenoxy)methyl)-2-methylbenzoic acid], the IC50 was greater than 2500 nM. The same measure for `Fc1cc(OCc2cccc(-c3nnn[nH]3)c2)ccc1C(F)(F)F` [Compound 17-9]: less than 100 nM; for `O=C(O)c1cc(F)cc(COc2ccc(Cl)cc2Cl)c1` [Compound 4-4]: less than 100 nM; for `COC(=O)c1cccc(COc2ccc(Cl)cc2Cl)c1` [Compound 1-4]: greater than 2500 nM.

Regarding `Fc1cc(COc2ccc(C(F)(F)F)cc2Cl)cc(-c2nnn[nH]2)c1` [Compound 17-14], the IC50 was less than 100 nM.

With `Cc1cc(C#N)ccc1OCc1cccc(C(=O)O)c1` [Compound 1-99], the IC50 lay within 100 to 500 nM.

For `N#Cc1cc(COc2ccc(Cl)c(Cl)c2Cl)cc(C(=O)O)c1` [Compound 32-3], the IC50 is less than 100 nM. As to `O=C(O)c1cccc(COc2ccc(C(F)(F)F)cc2C2CC2)c1` [Compound 34-1, 3-((2-cyclopropyl-4-(trifluoromethyl)phenoxy)methyl)benzoic acid], the IC50 fell in the range of 500 to 1000 nM. Turning to `Cc1cc(OCc2cccc(C(=O)O)c2)ccc1Cl` [Compound 1-72], the IC50 is 500 to 1000 nM. Regarding `O=C(O)c1cccc(COc2ccc(Cl)c(F)c2Cl)c1` [Compound 1-148], the IC50 is less than 100 nM. The same measure for `O=C(O)c1cccc(COc2ccc(OC(F)(F)F)cc2)c1` [Compound 1-47]: 100 to 500 nM; for `CCCc1cc(COc2ccc(C(F)(F)F)cc2Cl)nc(C(=O)O)c1` [Compound 39-1, 6-((2-chloro-4-(trifluoromethyl)phenoxy)methyl)-4-propylpicolinic acid]: less than 100 nM.

Consider `O=C(O)c1cccc(COc2ccccc2F)c1` [Compound 1-40], for which the IC50 fell in the range of 1000 to 2500 nM.
